Data as given in patent US12600696B2 (XENIOPRO GMBH, priority 2017, dated 2026).

Legend:
Type in all cases: cell-based
[1] = system: BHY cells (human oral squamous cell carcinoma cells); assay: alamarBlue proliferation assay with BHY cells; conditions: 72 h, 3 days treatment, single assay (preliminary), relative to DMSO basis level 1.0, read-out: equally weighted arithmetic mean (AVE) of six normalized fluorescence intensity values, activity range (RES: AVEw)
Experimental: Compounds were tested on BHY cells using the alamarBlue® proliferation assay in analogy to the above described method with seeding the cells at an initial number of 4000 cells per 96-well and a duration of treatment with compounds for 3 days.
BHY cells were cultivated according to the protocol of the provider (but at 5% instead of 10% CO2) in DMEM medium (Fisherscientific, #11584456) containing 10% fetal bovine serum (Fisherscientific, #15517589).
A compound is considered as a growth inhibitor of BHY cells, if—at a reference concentration of 40 μM—the equally weighted arithmetic mean (AVE) of the six normalized fluorescence intensity values after addition of the corresponding standard deviation amounts to 0.9 or lower, in particular to 0.8 or lower, 0.7 or lower, 0.6 or lower, 0.4 or lower, and 0.2 or lower, relative to the overall basis level of 1.0. The overall basis level was calculated as the weighted arithmetic mean (AVEw) of all normalized values from the DMSO control measurements. The corresponding combined standard deviation for the DMSO values amounts to less than 1·10^−2. The corresponding standard deviations for the tested compounds were calculated including the Gauß′ error propagation associated with the performed calculation for the normalization. The weighted arithmetic mean (AVEw) and the combined standard deviation for RES was calculated in analogy to DMSO. Outlier analyses were performed as described above.

[2] = system: HeLa cells (human cervical adenocarcinoma cells); assay: alamarBlue proliferation assay with HeLa cells; conditions: relative to DMSO basis level 1.0
Experimental: The antiproliferative activities of compounds falling under formula I, formula II, formula III, formula IV and formula V were investigated on cells or cell lines originating from a disorder of the myeloid cell compartment, the neuroendocrine system, the cervix, and the mucosal epithelium, as well as from the skin epithelium. To this end, HL-60 cells, TT cells, HeLa cells, CAL-27 cells and human primary epidermal keratinocytes (HPEK) were seeded into 96-well plates suitable for fluorescence assays (CORNING #3598) at following initial cell numbers: 1000 cells per well for HL-60; 9000 cells per well for TT; 2000 cells per well for HeLa, 2000 cells per well for CAL-27, 2000 cells per well for HPEK. […] The readout was taken with a multi-well plate-reader in the fluorescence mode with applying a filter for excitation at 560 nm (band width 10 nm) and for emission at 590 nm (band width 10 nm). […]
The assays were performed in duplicate or more replicates of independent single experiments each containing a six-fold replicate for every condition. For every individual plate, the measured fluorescence intensity values of the conditions with compound treatment were normalized against the corresponding equally weighted arithmetic mean of the fluorescence intensity values of the six DMSO treated control wells in order to obtain the relative values to a baseline level of 1.0. […]

[3] = system: C2C12 cells (murine myoblast cells); assay: alamarBlue proliferation assay with C2C12 cells; conditions: 40 μM, 3 days treatment, single assay (preliminary), relative to DMSO basis level 1.0
Experimental: Compounds were tested on C2C12 cells using the alamarBlue® proliferation assay in analogy to the above described method with seeding the cells at an initial number of 2000 cells per 96-well and a duration of treatment with compounds for 3 days.
In one embodiment, two compounds of the invention were found so far to inhibit the growth of C2C12 cells (murine myoblast cells) obtainable from the Deutsche Sammlung von Mikroorganismen and Zellkulturen GmbH (DSMZ) under the accession number ACC 565. C2C12 cells were cultivated according to the protocol of the provider in RPMI 1640 medium (Fisherscientific, #11554526) containing 10% fetal bovine serum (Fisherscientific, #15517589).
A compound is considered as a growth inhibitor of C2C12 cells, if—at a reference concentration of 40 μM—the equally weighted arithmetic mean (AVE) of the six normalized fluorescence intensity values after addition of the corresponding standard deviation amounts to 0.9 or lower, in particular to 0.8 or lower, 0.7 or lower, 0.6 or lower, 0.4 or lower, and 0.2 or lower, relative to the overall basis level of 1.0. The overall basis level was calculated as the equally weighted arithmetic mean (AVE) of the six normalized values from the DMSO control measurements in analogy to the calculations performed for the test-compounds. […]

Row | SMILES | activity at 40 µM [1] | further results
1 | O=C(NO)c1cnc(Oc2ccc(C3CCCCC3)cc2)c(F)c1 [Compound 644, 6-(4-Cyclohexylphenoxy)-5-fluoro-N-hydroxynicotinamide] | 60 to 70% | 
2 | Oc1ccc(C=Cc2cc(O)cc(O)c2)cc1 [RES, resveratrol, reference compound] | 60% | weighted arithmetic mean (AVEw) of normalized fluorescence intensity, activity range ([2]; 40 μM): 0.4 ± 0.0; weighted arithmetic mean (AVEw) of normalized fluorescence intensity ([2]; control RES at 20 μM): 0.9 ± 0.0; equally weighted arithmetic mean (AVE) of six normalized fluorescence intensity values, activity range [3]: 0.3 ± 0.0
3 | O=C(NO)c1ccc(Oc2ccc(C34CC5CC(CC(C5)C3)C4)cc2)c(F)c1 [Compound 544, 4-(4-(Adamantan-1-yl)phenoxy)-3-fluoro-N-hydroxybenzamide] | 20 to 40% | 
4 | CCC(C)(C)c1ccc(Oc2ccc(C(=O)NO)cc2)cc1 [Compound 171, N-hydroxy-4-(4-(tert-pentyl)phenoxy)benzamide] | 40 to 60% | 
5 | O=C(NO)c1ccc(Oc2ccc(C3CCCCC3)cc2)nc1 [Compound 284, 6-(4-Cyclohexylphenoxy)-N-hydroxynicotinamide] | 20 to 40% | 
6 | O=C(NO)c1ccc(Oc2ccc(C34CC5CC(CC(C5)C3)C4)cc2)cc1 [Compound 186, 4-(4-(Adamantan-1-yl)phenoxy)-N-hydroxybenzamide] | 20 to 40% | 
7 | O=C(NO)c1ccc(Oc2ccc(C3CCCCC3)cc2)cc1 [Compound 182, 4-(4-cyclohexylphenoxy)-N-hydroxybenzamide] | 20 to 40% | 
8 | O=C(NO)c1ccc(Oc2ccc(C34CC5CC(CC(C5)C3)C4)cc2)nc1 [Compound 288, 6-(4-((3r,5r,7r)-adamantan-1-yl)phenoxy)-N-hydroxynicotinamide] | 20 to 40% | 
9 | CC(C)c1ccc(Oc2ccc(C(=O)NO)cn2)cc1 [Compound 272, N-hydroxy-6-(4-isopropylphenoxy)nicotinamide] | 20 to 40% | 
